{"source": "ChEMBL document CHEMBL5038615", "about": "“Discovery of a cinnamyl piperidine derivative as new neddylation inhibitor for gastric cancer treatment” (Eur J Med Chem, 2021)", "key": {"HGC-27 [1]": {"tested_on": "HGC-27", "experiment": "Induction of apoptosis in human HGC-27 cells assessed as downregulation of Bcl-2 at 3 to 9 uM measured after 24 hrs by Western blot assay", "assay_type": "functional, cell-based", "conditions": "dose 3-9 µM"}, "HGC-27 [2]": {"tested_on": "HGC-27", "experiment": "Induction of apoptosis in human HGC-27 cells assessed as necrotic cells at 3 uM measured after 48 hrs by AnnexinV/FITC staining based flow cytometry method (reference value: 0.1%)", "assay_type": "functional"}, "HGC-27 [3]": {"tested_on": "HGC-27", "experiment": "Induction of apoptosis in human HGC-27 cells assessed as necrotic cells at 6 uM measured after 24 hrs by AnnexinV/FITC staining based flow cytometry method (reference value: 1.2%)", "assay_type": "functional"}, "MGC-803 [4]": {"tested_on": "MGC-803", "experiment": "Antitumour activity against human MGC-803 cells xenografted in NOD-SCID mouse assessed as reduction on tumour growth at 100 mg/kg/day, IG measured after 21 days relative to control", "assay_type": "functional", "conditions": "MGC-803, po, 504 h, time 21 day, read-out: TGI"}, "MGC-803 [5]": {"tested_on": "MGC-803", "experiment": "Induction of apoptosis in human MGC-803 cells assessed as early apoptotic cells at 7.5 uM measured after 24 hrs by AnnexinV/FITC staining based flow cytometry method (reference value: 1.3%)", "assay_type": "functional"}, "MGC-803 [6]": {"tested_on": "MGC-803", "experiment": "Induction of apoptosis in human MGC-803 cells assessed as up-regulation of Nrf2 expression in cytoplasm at 2.5 to 7.5 uM measured after 24 hrs by Western blot assay", "assay_type": "functional, cell-based", "conditions": "dose 2.5-7.5 µM"}, "HGC-27 [7]": {"tested_on": "HGC-27", "experiment": "Inhibition of cell migration in human HGC-27 cells at 1.5 to 6 uM measured after 24 to 48 hrs by wound healing assay based inverted microscopic analysis", "assay_type": "functional", "conditions": "dose 1.5-6 µM, time 24-48 hrs"}, "[8]": {"biological_target": "T1, NEDD8-activating enzyme E1 regulatory subunit (Homo sapiens) (UniProt Q13564)", "T1 sequence (whole entry)": "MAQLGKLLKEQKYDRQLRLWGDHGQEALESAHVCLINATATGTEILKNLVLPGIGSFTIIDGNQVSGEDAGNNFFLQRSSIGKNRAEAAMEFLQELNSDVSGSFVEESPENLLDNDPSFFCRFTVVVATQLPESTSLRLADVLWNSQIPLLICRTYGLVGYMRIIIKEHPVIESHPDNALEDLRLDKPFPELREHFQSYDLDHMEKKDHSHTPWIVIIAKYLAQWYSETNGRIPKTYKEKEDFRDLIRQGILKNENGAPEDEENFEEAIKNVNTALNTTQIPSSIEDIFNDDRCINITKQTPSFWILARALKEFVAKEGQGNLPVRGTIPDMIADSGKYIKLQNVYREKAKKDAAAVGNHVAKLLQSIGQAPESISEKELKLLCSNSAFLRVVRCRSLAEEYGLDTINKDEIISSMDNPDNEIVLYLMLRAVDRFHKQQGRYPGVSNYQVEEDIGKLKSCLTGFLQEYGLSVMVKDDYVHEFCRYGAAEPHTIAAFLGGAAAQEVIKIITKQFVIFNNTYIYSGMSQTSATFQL", "experiment": "Inhibition of NAE-mediated neddylation in human MGC-803 cells assessed as cullin2-Nedd8 adduct formation at 2.5 to 7.5 uM measured after 24 hrs by western blot assay", "assay_type": "cell-based", "conditions": "dose 2.5-7.5 µM"}, "[9]": {"biological_target": "T1, NEDD8-activating enzyme E1 regulatory subunit (Homo sapiens)", "experiment": "Inhibition of NAE-mediated neddylation in human MGC-803 cells assessed as cullin3-Nedd8 adduct formation at 2.5 to 7.5 uM measured after 24 hrs by western blot assay", "assay_type": "cell-based", "conditions": "dose 2.5-7.5 µM"}, "[10]": {"experiment": "Toxicity in NOD-SCID mouse xenografted with human MGC-803 cells assessed as change in body weight at 50 to 100 mg/kg/day, IG measured after 21 days", "assay_type": "organism-based", "conditions": "in vivo, po, 504 h, dose 50-100 mg/kg/day, time 21 day"}, "HGC-27 [11]": {"tested_on": "HGC-27", "experiment": "Induction of apoptosis in human HGC-27 cells assessed as early apoptotic cells at 6 uM measured after 48 hrs by AnnexinV/FITC staining based flow cytometry method (reference value: 5.8%)", "assay_type": "functional"}, "MGC-803 [12]": {"tested_on": "MGC-803", "experiment": "Induction of apoptosis in human MGC-803 cells assessed as necrotic cells at 7.5 uM measured after 24 hrs by AnnexinV/FITC staining based flow cytometry method (reference value: 1.9%)", "assay_type": "functional"}, "MGC-803 [13]": {"tested_on": "MGC-803", "experiment": "Cell cycle arrest in human MGC-803 cells assessed as accumulation of cells at G0/G1 phase at 2.5 uM measured after 24 hrs by Flowcytometry assay (reference value: 46.01%)", "assay_type": "functional"}, "MGC-803 [14]": {"tested_on": "MGC-803", "experiment": "Antiproliferative activity against human MGC-803 cells assessed as inhibition of cell proliferation at 0.39 to 50 uM measured upto 72 hrs by MTT assay", "assay_type": "functional, cell-based", "conditions": "dose 0.39-50 µM, time hrs <=72"}, "MGC-803 [15]": {"tested_on": "MGC-803", "experiment": "Induction of apoptosis in human MGC-803 cells assessed as necrotic cells at 7.5 uM measured after 48 hrs by AnnexinV/FITC staining based flow cytometry method (reference value: 0.2%)", "assay_type": "functional"}, "MGC-803 [16]": {"tested_on": "MGC-803", "experiment": "Cell cycle arrest in human MGC-803 cells assessed as accumulation of cells at G2/M phase at 2.5 uM measured after 24 hrs by Flowcytometry assay (reference value: 13.71%)", "assay_type": "functional"}, "MGC-803 [17]": {"tested_on": "MGC-803", "experiment": "Cell cycle arrest in human MGC-803 cells assessed as accumulation of cells at G2/M phase at 7.5 uM measured after 24 hrs by Flowcytometry assay (reference value: 13.71%)", "assay_type": "functional"}, "HGC-27 [18]": {"tested_on": "HGC-27", "experiment": "Induction of apoptosis in human HGC-27 cells assessed as early apoptotic cells at 6 uM measured after 24 hrs by AnnexinV/FITC staining based flow cytometry method (reference value: 0.7%)", "assay_type": "functional"}, "HGC-27 [19]": {"tested_on": "HGC-27", "experiment": "Induction of apoptosis in human HGC-27 cells assessed as viable cells at 9 uM measured after 48 hrs by AnnexinV/FITC staining based flow cytometry method (reference value: 93.18%)", "assay_type": "functional", "conditions": "read-out: Activity"}, "HGC-27 [20]": {"tested_on": "HGC-27", "experiment": "Antiproliferative activity against human HGC-27 cells assessed as inhibition of cell proliferation at 0.39 to 50 uM measured upto 72 hrs by MTT assay", "assay_type": "functional, cell-based", "conditions": "dose 0.39-50 µM, time hrs <=72"}, "HGC-27 [21]": {"tested_on": "HGC-27", "experiment": "Induction of apoptosis in human HGC-27 cells assessed as viable cells at 9 uM measured after 24 hrs by AnnexinV/FITC staining based flow cytometry method (reference value: 95.7%)", "assay_type": "functional", "conditions": "read-out: Activity"}, "MGC-803 [22]": {"tested_on": "MGC-803", "experiment": "Induction of apoptosis in human MGC-803 cells assessed as late apoptotic cells at 7.5 uM measured after 48 hrs by AnnexinV/FITC staining based flow cytometry method (reference value: 0.9%)", "assay_type": "functional"}, "HGC-27 [23]": {"tested_on": "HGC-27", "experiment": "Induction of apoptosis in human HGC-27 cells assessed as upregulation of Bid at 3 to 9 uM measured after 24 hrs by Western blot assay", "assay_type": "functional, cell-based", "conditions": "dose 3-9 µM"}, "HGC-27 [24]": {"tested_on": "HGC-27", "experiment": "Induction of apoptosis in human HGC-27 cells assessed as viable cells at 6 uM measured after 48 hrs by AnnexinV/FITC staining based flow cytometry method (reference value: 93.18%)", "assay_type": "functional", "conditions": "read-out: Activity"}, "MGC-803 [25]": {"tested_on": "MGC-803", "experiment": "Induction of apoptosis in human MGC-803 cells assessed as ROS levels at 5 uM measured after 24 hrs by DCFH-DA staining based flow cytometry assay (reference value: 3.3%)", "assay_type": "functional"}, "MGC-803 [26]": {"tested_on": "MGC-803", "experiment": "Inhibition of cell migration in human MGC-803 cells at 5 uM measured after 48 hrs by wound healing assay based inverted microscopic analysis", "assay_type": "functional"}, "MGC-803 [27]": {"tested_on": "MGC-803", "experiment": "Induction of apoptosis in human MGC-803 cells assessed as down-regulation of Bcl2 at 2.5 to 7.5 uM measured after 24 hrs by Western blot assay", "assay_type": "functional, cell-based", "conditions": "dose 2.5-7.5 µM"}, "HGC-27 [28]": {"tested_on": "HGC-27", "experiment": "Induction of apoptosis in human HGC-27 cells assessed as late apoptotic cells at 6 uM measured after 48 hrs by AnnexinV/FITC staining based flow cytometry method (reference value: 1%)", "assay_type": "functional"}}, "note": "Calls of active or inactive are those of the source. The calls are words filed in the database; no cut-off is given here.", "data": [{"smiles": "CCCCCc1ccc(NC(=O)C2CCN(C/C=C/c3ccccc3)CC2)cc1", "values": [{"measurement": "Activity", "setting": "HGC-27 [1]", "result": "Dose-Dependent Effect"}, {"measurement": "Activity", "setting": "HGC-27 [2]", "result": 2.4, "unit": "%"}, {"measurement": "Activity", "setting": "HGC-27 [3]", "result": 0.2, "unit": "%"}, {"measurement": "inhibition in vivo at 100 mg/kg/day", "setting": "MGC-803 [4]", "result": 39.2, "unit": "%"}, {"measurement": "Activity", "setting": "MGC-803 [5]", "result": 1.7, "unit": "%"}, {"measurement": "Activity", "setting": "MGC-803 [6]", "result": "Active"}, {"measurement": "inhibition", "setting": "HGC-27 [7]", "result": "Dose-Dependent Effect"}, {"measurement": "inhibition", "setting": "[8]", "result": "inactive"}, {"measurement": "inhibition", "setting": "[9]", "result": "Active"}, {"measurement": "Activity", "setting": "[10]", "result": "Non-Toxic"}, {"measurement": "Activity", "setting": "HGC-27 [11]", "result": 32.2, "unit": "%"}, {"measurement": "Activity", "setting": "MGC-803 [12]", "result": 6.9, "unit": "%"}, {"measurement": "Activity", "setting": "MGC-803 [13]", "result": 48.87, "unit": "%"}, {"measurement": "Activity", "setting": "MGC-803 [14]", "result": "Dose-Dependent Effect"}, {"measurement": "Activity", "setting": "MGC-803 [15]", "result": 0, "unit": "%"}, {"measurement": "Activity", "setting": "MGC-803 [16]", "result": 17.77, "unit": "%"}, {"measurement": "Activity", "setting": "MGC-803 [17]", "result": 25.94, "unit": "%"}, {"measurement": "Activity", "setting": "HGC-27 [18]", "result": 23.1, "unit": "%"}, {"measurement": "viability at 9 µM", "setting": "HGC-27 [19]", "result": 0.3, "unit": "%"}, {"measurement": "Activity", "setting": "HGC-27 [20]", "result": "Dose-Dependent Effect"}, {"measurement": "viability at 9 µM", "setting": "HGC-27 [21]", "result": 20.9, "unit": "%"}, {"measurement": "Activity", "setting": "MGC-803 [22]", "result": 95.6, "unit": "%"}, {"measurement": "Activity", "setting": "HGC-27 [23]", "result": "Dose-Dependent Effect"}, {"measurement": "viability at 6 µM", "setting": "HGC-27 [24]", "result": 45.8, "unit": "%"}, {"measurement": "Activity", "setting": "MGC-803 [25]", "result": 5.4, "unit": "%"}, {"measurement": "inhibition at 5 µM", "setting": "MGC-803 [26]", "result": 40, "unit": "%"}, {"measurement": "Activity", "setting": "MGC-803 [27]", "result": "Dose-Dependent Effect"}, {"measurement": "Activity", "setting": "HGC-27 [28]", "result": 21.2, "unit": "%"}]}]}
